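Five compound concentrations were applied to cells in 96-well plates for 48 hours; endpoints were derived by simple linear interpolation of the resulting dose-response curve. Abbreviation: GI50, concentration required for 50% inhibition of growth.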 The source made the active and inactive calls. Rule as the data show it: active = GI50 up to about 1.1 µM and inactive = higher.
Tests used:
Assay in all cases: DTP human tumour cell line panel, 48 h
[1] = test system: SNB-19
[2] = test system: LOX IMVI
[3] = test system: SNB-75
[4] = test system: BT-549
[5] = test system: NCI-H226
[6] = test system: DU-145
[7] = test system: HCT-15
[8] = test system: HCT-116
[9] = test system: SK-MEL-28
[10] = test system: OVCAR-5
[11] = test system: SF-268
[12] = test system: IGROV-1
[13] = test system: COLO 205
[14] = test system: UACC-257
[15] = test system: SW-620
[16] = test system: ACHN
[17] = test system: SN12C
[18] = test system: MOLT-4
[19] = test system: M14
[20] = test system: NCI/ADR-RES
[21] = test system: NCI-H460
[22] = test system: KM12
[23] = test system: CAKI-1
[24] = test system: EKVX
[25] = test system: OVCAR-8
[26] = test system: U-251
[27] = test system: NCI-H23
[28] = test system: SK-OV-3
[29] = test system: CCRF-CEM
[30] = test system: MDA-MB-435
[31] = test system: OVCAR-3
[32] = test system: A549
[33] = test system: MDA-MB-231
[34] = test system: 786-0
[35] = test system: UACC-62
[36] = test system: SK-MEL-2
[37] = test system: TK-10
[38] = test system: SF-295
[39] = test system: HOP-62
[40] = test system: T47D
[41] = test system: RXF 393
[42] = test system: UO-31
[43] = test system: MCF7
[44] = test system: HT-29
[45] = test system: SR
[46] = test system: SK-MEL-5
[47] = test system: K562
[48] = test system: SF-539
[49] = test system: HCC 2998
[50] = test system: HL-60
[51] = test system: PC-3
[52] = test system: HOP-92
[53] = test system: OVCAR-4
[54] = test system: NCI-H522
[55] = test system: RPMI-8226
[56] = test system: A498
[57] = test system: Hs-578T
[58] = test system: MDA-N
[59] = test system: Malme-3M

`CC[C@]1(Cc2ccc(OC)c(OC)c2)[C@@H]2C[C@@H](C(=O)OC)ON2O[C@H](OC2CCCC2(c2ccccc2)c2ccccc2)[C@@H]1OC(C)=O` (some centres not stated) was tested, and the GI50 [1] was > 100 µM (inactive), the GI50 [2] was > 100 µM (inactive) and the GI50 [3] was > 100 µM (inactive). For the same compound, the GI50 [4] was > 100 µM (inactive), the GI50 [5] was > 100 µM (inactive) and the GI50 [6] was > 100 µM (inactive). For the same compound, the GI50 [7] was greater than 100 µM, the GI50 [8] was > 100 µM (inactive) and the GI50 [9] was > 100 µM (inactive). For the same compound, the GI50 [10] was > 100 µM (inactive), the GI50 [11] was > 100 µM (inactive) and the GI50 [12] was > 100 µM (inactive). For the same compound, the GI50 [13] was > 100 µM (inactive), the GI50 [14] was > 100 µM (inactive) and the GI50 [15] was > 100 µM (inactive). For the same compound, the GI50 [16] was > 100 µM (inactive), the GI50 [17] was > 100 µM (inactive) and the GI50 [18] was > 100 µM (inactive). The GI50 [19] was > 100 µM (inactive), the GI50 [20] was > 100 µM (inactive) and the GI50 [21] was > 100 µM (inactive). The GI50 [22] was > 100 µM (inactive), the GI50 [23] was > 100 µM (inactive) and the GI50 [24] was > 100 µM (inactive). The GI50 [25] was > 100 µM (inactive), the GI50 [26] was > 100 µM (inactive) and the GI50 [27] was > 100 µM (inactive). The GI50 [28] was > 100 µM (inactive), the GI50 [29] was > 100 µM (inactive) and the GI50 [30] was > 100 µM (inactive). For the same compound, the GI50 [31] was > 100 µM (inactive), the GI50 [32] was > 100 µM (inactive) and the GI50 [33] was > 100 µM (inactive). The GI50 [34] was > 100 µM (inactive), the GI50 [35] was > 100 µM (inactive) and the GI50 [36] was > 100 µM (inactive). For the same compound, the GI50 [37] was > 100 µM (inactive), the GI50 [38] was > 100 µM (inactive) and the GI50 [39] was > 100 µM (inactive). The GI50 [40] was > 100 µM (inactive), the GI50 [41] was > 100 µM (inactive) and the GI50 [42] was > 100 µM (inactive). For the same compound, the GI50 [43] was > 100 µM (inactive), the GI50 [44] was > 100 µM (inactive) and the GI50 [45] was 66.7 µM (inactive). For the same compound, the GI50 [46] was > 100 µM (inactive) and the GI50 [47] was > 100 µM (inactive).

`COc1cc(C(=O)NC(CCN)(c2ccccc2)c2ccccc2)cc(OC)c1OC` was tested, and the GI50 [1] was > 58.5 µM (inactive), the GI50 [2] was 16.7 µM (inactive) and the GI50 [3] was 17 µM (inactive). The GI50 [5] was 30.8 µM (inactive), the GI50 [6] was > 31.6 µM (inactive) and the GI50 [48] was > 65.2 µM (inactive). For the same compound, the GI50 [7] was greater than 31.6 µM, the GI50 [8] was > 42.4 µM (inactive) and the GI50 [9] was 13.8 µM (inactive). The GI50 [10] was > 87.5 µM (inactive), the GI50 [11] was 29.1 µM (inactive) and the GI50 [12] was 25.1 µM (inactive). The GI50 [49] was 13.4 µM (inactive), the GI50 [50] was 12.2 µM (inactive) and the GI50 [51] was > 100 µM (inactive). For the same compound, the GI50 [13] was 14.1 µM (inactive), the GI50 [52] was 15.3 µM (inactive) and the GI50 [14] was 16.8 µM (inactive). For the same compound, the GI50 [15] was 29.6 µM (inactive), the GI50 [16] was 24.8 µM (inactive) and the GI50 [17] was 21.7 µM (inactive). The GI50 [18] was 10.8 µM (inactive), the GI50 [19] was 13.9 µM (inactive) and the GI50 [20] was 42.7 µM (inactive). The GI50 [21] was 19.2 µM (inactive), the GI50 [22] was 29.2 µM (inactive) and the GI50 [23] was 35.4 µM (inactive). For the same compound, the GI50 [24] was > 31.6 µM (inactive), the GI50 [53] was 21.2 µM (inactive) and the GI50 [25] was > 31.6 µM (inactive). For the same compound, the GI50 [26] was 53.2 µM (inactive), the GI50 [27] was 26.3 µM (inactive) and the GI50 [28] was > 31.6 µM (inactive). The GI50 [54] was 16.6 µM (inactive), the GI50 [29] was > 10 µM (inactive) and the GI50 [55] was > 10 µM (inactive). The GI50 [30] was 16 µM (inactive), the GI50 [31] was 56.8 µM (inactive) and the GI50 [56] was 12.6 µM (inactive). The GI50 [32] was 21.3 µM (inactive), the GI50 [57] was > 56.2 µM (inactive) and the GI50 [33] was 16.9 µM (inactive). The GI50 [58] was 19.2 µM (inactive), the GI50 [34] was 22.9 µM (inactive) and the GI50 [35] was > 31.6 µM (inactive). The GI50 [36] was 63.2 µM (inactive), the GI50 [37] was 28.8 µM (inactive) and the GI50 [38] was 21.6 µM (inactive). For the same compound, the GI50 [39] was > 31.6 µM (inactive), the GI50 [40] was 23.4 µM (inactive) and the GI50 [41] was 10.4 µM (inactive). For the same compound, the GI50 [42] was 20.9 µM (inactive), the GI50 [43] was > 31.6 µM (inactive) and the GI50 [59] was 13.5 µM (inactive). The GI50 [44] was 16.8 µM (inactive), the GI50 [45] was 15.6 µM (inactive) and the GI50 [46] was 13 µM (inactive). For the same compound, the GI50 [47] was 12.9 µM (inactive).

With `COc1cc(C/N=c2/nc(N(C)C)ss2)cc(OC)c1OC` the GI50 [1] was > 10 µM (inactive), the GI50 [2] was 2.1 µM (inactive) and the GI50 [3] was > 10 µM (inactive). The GI50 [5] was > 10 µM (inactive), the GI50 [6] was > 10 µM (inactive) and the GI50 [48] was > 10 µM (inactive). For the same compound, the GI50 [7] was greater than 10 µM, the GI50 [8] was 8.85 µM (inactive) and the GI50 [9] was > 7.31 µM (inactive). The GI50 [10] was 3.37 µM (inactive), the GI50 [11] was > 10 µM (inactive) and the GI50 [12] was > 10 µM (inactive). The GI50 [49] was > 10 µM (inactive), the GI50 [50] was 1.8 µM (inactive) and the GI50 [51] was > 10 µM (inactive). The GI50 [13] was > 10 µM (inactive), the GI50 [52] was > 10 µM (inactive) and the GI50 [14] was > 10 µM (inactive). The GI50 [15] was 5.6 µM (inactive), the GI50 [16] was > 10 µM (inactive) and the GI50 [17] was > 10 µM (inactive). For the same compound, the GI50 [18] was 2.81 µM (inactive), the GI50 [19] was > 9.1 µM (inactive) and the GI50 [20] was > 10 µM (inactive). The GI50 [21] was > 10 µM (inactive), the GI50 [22] was > 7.59 µM (inactive) and the GI50 [23] was > 10 µM (inactive). The GI50 [24] was > 10 µM (inactive), the GI50 [53] was > 9.27 µM (inactive) and the GI50 [25] was > 4.99 µM (inactive). The GI50 [26] was > 10 µM (inactive), the GI50 [27] was > 10 µM (inactive) and the GI50 [28] was > 10 µM (inactive). The GI50 [54] was > 10 µM (inactive), the GI50 [29] was 0.189 µM (active) and the GI50 [55] was 2.48 µM (inactive). The GI50 [30] was > 10 µM (inactive), the GI50 [31] was > 10 µM (inactive) and the GI50 [56] was > 10 µM (inactive). For the same compound, the GI50 [32] was > 10 µM (inactive), the GI50 [57] was > 10 µM (inactive) and the GI50 [33] was > 10 µM (inactive). The GI50 [58] was > 10 µM (inactive), the GI50 [34] was 3.24 µM (inactive) and the GI50 [35] was > 10 µM (inactive). The GI50 [37] was > 10 µM (inactive), the GI50 [38] was > 10 µM (inactive) and the GI50 [39] was > 10 µM (inactive). The GI50 [40] was > 10 µM (inactive), the GI50 [41] was > 10 µM (inactive) and the GI50 [42] was > 10 µM (inactive). The GI50 [43] was > 5.78 µM (inactive), the GI50 [59] was > 5.15 µM (inactive) and the GI50 [44] was > 10 µM (inactive). For the same compound, the GI50 [45] was 0.358 µM (active), the GI50 [46] was > 10 µM (inactive) and the GI50 [47] was 1.46 µM (inactive).
